Results from patent US5068325A, “4,5,7,8-tetrahydro-6H-thiazolo[5,4-d]azepines, their preparation and their use as pharmaceutical compositions” (priority 1988, dated 1991).

How the values were obtained:
Type in all cases: binding
[1] = biological target: dopamine D2-receptors (Rattus norvegicus, UniProt P61169); experiment: affinity for dopamine D2-receptors by displacement experiments with [3H]-spiperone (rat striatum membranes); details: for Ki: [3H]-spiperone, high-affinity form of the dopamine receptor; for α2-IC50 / D2-Ki: relative affinity for dopamine-D2 receptors compared with α2-adrenoceptors, the higher, the higher the D2/α2 selectivity
[2] = biological target: T1, alpha-2 receptors (Rattus norvegicus, UniProt P22909); experiment: affinity for alpha-2 receptors by displacement experiments with [3H]-clonidine (rat cortex membranes); details: read-out: α2-IC50
T1 sequence (P22909 1-465): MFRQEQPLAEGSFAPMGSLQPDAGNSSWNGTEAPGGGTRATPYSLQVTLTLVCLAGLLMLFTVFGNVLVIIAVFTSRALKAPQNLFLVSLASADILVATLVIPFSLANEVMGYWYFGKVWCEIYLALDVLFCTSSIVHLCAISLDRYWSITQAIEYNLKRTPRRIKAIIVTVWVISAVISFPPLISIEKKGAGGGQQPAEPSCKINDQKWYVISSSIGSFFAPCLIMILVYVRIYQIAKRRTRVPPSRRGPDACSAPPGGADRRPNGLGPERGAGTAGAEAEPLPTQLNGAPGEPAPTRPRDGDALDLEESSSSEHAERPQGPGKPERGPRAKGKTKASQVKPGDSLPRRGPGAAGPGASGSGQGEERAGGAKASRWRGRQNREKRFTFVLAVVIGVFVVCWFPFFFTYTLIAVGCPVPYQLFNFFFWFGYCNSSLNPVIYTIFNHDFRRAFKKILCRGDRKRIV
Experimental: Determination of the affinity for alpha-2 receptors by displacement experiments with [^3 H] clonidine (Modified Method of B. Jarrott, W. J. Louis and R. J. Summers, Biochem. Pharmacol. 27, 141 (1979))
A male rat (Chbb:Thom strain weighing about 200 g) was killed by a blow to the back of the neck. The brain was removed and the cortex dissected out, weighed and homogenised in 25 volumes of tris buffer (50 mM tris- HCl, pH 7.50) for 30 seconds in an Ultra-Turrax at maximum speed, followed by 10° Cycles in a Potter- Elvehjem at 1400 rpm. The homogenised material was combined with tris buffer to obtain a homogenate dilution of 1:50 (based on the weight of the cortex).
1 ml aliquots of the membrane preparation were incubated for three hours at ambient temperature with 1 ml of a solution of 1 nM of [^3 H]-clonidine (2.2 TBq/mmol, Messrs. DuPont NEN) and with increasing concentrations of the test substance (10^-11 to 10^-4 M). Incubation was ended by the addition of 5 ml of ice-cold tris buffer and filtration through Whatman GF/B filters. The filters were washed twice, each time with 5 ml of ice cold buffer. The radioactivity of the filters was determined by liquid scintillation measurement in Instagel(R) (Messrs. Canberra Packard). The non-specific binding was determined in the presence of 10^-5 M of oxymetazoline (Sigma Chemical Co.).
Displacement curves were obtained from the data using the TOPFIT programming package (G. Heinzel in "Pharmacokinetics During Drug Development: Data Analysis and Evaluation Techniques", G. Bozler and J. M. van Rossum Eds., G. Fischer Verlag, Stuttgart 1982, 207).

[3] = biological target: T2, serotonin-2(5-HT2)-receptors (Rattus norvegicus, UniProt P14842); experiment: affinity for serotonin-2 (5-HT2) receptors by displacement experiments with [3H]-spiperone (rat frontal cortex)
T2 construct: The frontal cortex was dissected out and placed in ice cold 0.32 M saccharose solution; from tissue; host or cells: rat frontal cortex homogenate (Chbb:Thom strain)
Experimental: Specific binding is obtained from total binding minus non-specific binding.
A male rat (Chbb:Thom strain, about 200 g) was decapitated. The brain was removed. The frontal cortex was dissected out and placed in ice cold 0.32 M saccharose solution; its moist weight was determined. It was homogenised in 10 times the volume (0.32 M) of saccharose solution for 1 minute at 800 rpm in a Potter S (made by Braun of Melsungen). The homogenised material was centrifuged for 10 minutes at 1000×g (=3,000 rpm with a rotor 8×38 ml) in a refrigerated centrifuge. The supernatant was decanted off and homogenised (Polytron, position 5, 1 minute); the sediment was discarded. 5 ml (=0.5 g moist weight) of the tissue suspension thus obtained were made up to 40 ml with buffer (50 mm tris-HCl; pH=7.7 at ambient temperature).
0.8 ml of the buffered homogenised tissue (=10 mg moist weight) were incubated with 0.1 ml of a solution of [^3 H]-spiperone (about 0.2 nmol/1 final concentration) and with 0.1 ml of a solution of the test substance (increasing concentration) for 15 minutes at 37° C. (triple measurement). Incubation was stopped by rapid filtering through a Whatman GF/B filter; rinsing was carried out 3 times, each time with 5 ml of ice cold buffer within a maximum of 10 seconds (Filter Prep Messrs. Ismatec). The radioactivity of the filters was determined by liquid scintillation measurement.
The specific binding is obtained from the total binding minus the non-specific binding. The averages of the triple measurements are entered in a system of coordinates as in 1.3. The IC50 value is the concentration which inhibits the specific binding of [^3 H]-spiperone by 50%.

Sequence of dopamine D2-receptors (P61169 whole entry): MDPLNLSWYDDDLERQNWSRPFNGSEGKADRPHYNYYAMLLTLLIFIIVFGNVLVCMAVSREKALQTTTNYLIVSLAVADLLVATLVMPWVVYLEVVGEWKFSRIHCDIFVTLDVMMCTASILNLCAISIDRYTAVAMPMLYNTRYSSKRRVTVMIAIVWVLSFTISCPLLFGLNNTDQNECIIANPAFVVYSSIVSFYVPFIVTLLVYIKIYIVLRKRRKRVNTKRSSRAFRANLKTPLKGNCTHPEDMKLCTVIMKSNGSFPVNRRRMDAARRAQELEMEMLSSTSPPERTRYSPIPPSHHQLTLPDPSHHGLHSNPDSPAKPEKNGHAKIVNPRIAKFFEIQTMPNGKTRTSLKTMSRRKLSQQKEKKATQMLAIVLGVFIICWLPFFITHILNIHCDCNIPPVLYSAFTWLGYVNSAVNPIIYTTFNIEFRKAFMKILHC
T2 sequence (P14842 whole entry): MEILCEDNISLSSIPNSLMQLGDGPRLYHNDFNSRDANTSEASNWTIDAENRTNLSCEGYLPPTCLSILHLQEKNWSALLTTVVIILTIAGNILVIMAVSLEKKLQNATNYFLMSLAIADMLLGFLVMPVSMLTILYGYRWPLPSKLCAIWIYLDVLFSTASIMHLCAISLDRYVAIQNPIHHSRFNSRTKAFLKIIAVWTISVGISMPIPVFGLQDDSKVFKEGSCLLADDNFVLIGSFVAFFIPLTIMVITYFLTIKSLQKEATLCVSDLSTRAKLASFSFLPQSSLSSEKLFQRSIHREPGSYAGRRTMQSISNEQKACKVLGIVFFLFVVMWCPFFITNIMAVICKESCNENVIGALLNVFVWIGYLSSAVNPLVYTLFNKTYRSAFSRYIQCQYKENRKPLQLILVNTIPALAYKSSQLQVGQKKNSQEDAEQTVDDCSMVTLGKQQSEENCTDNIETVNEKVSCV

Row | Ki [1] [nM] | α2-IC50 / D2-Ki [1] | IC50 [2] [nM] | Ki [3] [nM] | SMILES
1 | 5 | 4.8 | 24 | 20200 | C=CCN1CCc2nc(N)sc2CC1 [Compound A, reference compound]
2 | 0.73 | 410 | 300 | 470 | Nc1nc2c(s1)CCN(CC=Cc1cccc(OCc3ccccc3)c1)CC2 [Example 4y, 2-Amino-6-(3-(3-benzyloxy-phenyl)allyl)-4,5,7,8-tetrahydro-6H-thiazolo[5,4-d]azepine]
3 | 9.9 | 303 | 3000 | 558 | Nc1nc2c(s1)CCN(CC=Cc1ccccc1N1CCCCC1)CC2 [Example 11p, 2-Amino-6-(3-(2-(1-piperidino)phenyl)-2-propen-1-yl)-4,5,7,8-tetrahydro-6H-thiazolo[5,4-d]azepine]
4 | 0.92 | 3370 | 3100 | 120 | Nc1nc2c(s1)CCN(CC=Cc1nccc3ccccc13)CC2 [Example 7a, 2-Amino-6-(3-(1-isoquinolinyl)allyl)-4,5,7,8-tetrahydro-6H-thiazolo[5,4-d]azepine]
5 | 1.7 | 529 | 900 | 560 | Nc1nc2c(s1)CCN(CC=Cc1cc3ccccc3cn1)CC2 [Example 24a, 2-Amino-6-(3-(3-isoquinolinyl)allyl)-4,5,7,8-tetrahydro-6H-thiazolo[5,4-d]azepine]

Row | SMILES | Ki [1] [nM] | α2-IC50 / D2-Ki [1] | IC50 [2] [nM] | Ki [3] [nM]
6 | Nc1nc2c(s1)CCN(Cc1ccc(Cl)cc1)CC2 [Compound B, reference compound] | 13 | 31.5 | 410 | 18400
7 | Nc1nc2c(s1)CCN(CC=Cc1cccc3ccccc13)CC2 [Example 4t, 2-Amino-6-(3-(1-naphthyl)allyl)-4,5,7,8-tetrahydro-6H-thiazolo[5,4-d]azepine] | 3.1 | 148 | 460 | 26
8 | N#Cc1ccc(C=CCN2CCc3nc(N)sc3CC2)cc1 [Example 14b, 2-Amino-6-(3-(4-cyano-phenyl)allyl)-4,5,7,8-tetrahydro-6H-thiazolo[5,4-d]azepine] | 2.6 | 192 | 500 | 15000
